{"source": "ChEMBL document CHEMBL1201862", "about": "“PubChem BioAssay data set” (2004)", "assay_type_in_all_cases": "functional", "key": {"[1]": {"target": "T1, Kappa-type opioid receptor (Homo sapiens, UniProt P41145)", "T1 sequence (P41145 whole entry)": "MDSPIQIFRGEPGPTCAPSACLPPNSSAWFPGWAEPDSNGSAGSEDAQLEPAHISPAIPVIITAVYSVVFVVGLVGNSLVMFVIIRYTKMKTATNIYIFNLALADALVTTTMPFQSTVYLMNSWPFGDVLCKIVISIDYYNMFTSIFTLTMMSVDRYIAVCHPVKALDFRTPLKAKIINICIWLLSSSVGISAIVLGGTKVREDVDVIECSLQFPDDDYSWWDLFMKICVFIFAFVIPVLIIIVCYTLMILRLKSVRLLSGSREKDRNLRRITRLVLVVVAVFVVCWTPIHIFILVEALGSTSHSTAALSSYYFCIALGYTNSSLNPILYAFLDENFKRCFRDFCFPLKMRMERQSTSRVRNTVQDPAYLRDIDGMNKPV", "assay": "SAR analysis of small molecule agonists of the kappa opioid receptor via a luminescent beta-arrestin assay - Set 3. [Related pubchem assays (depositor defined):AID1777, AID1785, AID1786, AID1966, AID2133, AID2136, AID2284, AID2500]"}, "[2]": {"target": "T1, Kappa-type opioid receptor", "assay": "SAR analysis of small molecule agonists of the kappa opioid receptor via a luminescent beta-arrestin assay. [Related pubchem assays (depositor defined):AID1777, AID1786, AID1966, AID2133, AID2136, AID2348, AID2352, AID2357, AID2359, AID2370, AID2420, AID2478, AID2491, AID2492, AID2493, AID2497, AID2498, AID2500, AID449737, AID488822, AID488842]"}, "Mu-type opioid receptor [3]": {"target": "T2, Mu-type opioid receptor (Homo sapiens, UniProt P35372)", "T2 sequence (P35372 whole entry)": "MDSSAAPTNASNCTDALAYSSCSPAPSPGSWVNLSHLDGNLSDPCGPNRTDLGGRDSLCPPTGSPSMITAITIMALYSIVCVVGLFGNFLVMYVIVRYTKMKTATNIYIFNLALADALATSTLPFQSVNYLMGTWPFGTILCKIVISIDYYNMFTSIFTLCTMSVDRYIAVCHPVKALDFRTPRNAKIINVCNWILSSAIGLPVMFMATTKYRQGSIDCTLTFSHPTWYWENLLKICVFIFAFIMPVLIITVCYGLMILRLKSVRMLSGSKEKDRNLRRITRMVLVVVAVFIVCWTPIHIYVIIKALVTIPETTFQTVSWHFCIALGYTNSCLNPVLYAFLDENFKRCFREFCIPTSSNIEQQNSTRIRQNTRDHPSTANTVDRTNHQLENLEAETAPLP", "assay": "mu opioid receptor blockers – image-based, SAR follow-up (AID 2420);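 note: compounds added before stimulation of receptor with agonist DAMGO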"}, "[4]": {"target": "T1, Kappa-type opioid receptor", "assay": "kappa opioid receptor activation potency – imaging, image-based, SAR follow-up (AID 2359)"}, "[5]": {"target": "T3, Delta-type opioid receptor (Homo sapiens, UniProt P41143)", "T3 sequence (P41143 whole entry)": "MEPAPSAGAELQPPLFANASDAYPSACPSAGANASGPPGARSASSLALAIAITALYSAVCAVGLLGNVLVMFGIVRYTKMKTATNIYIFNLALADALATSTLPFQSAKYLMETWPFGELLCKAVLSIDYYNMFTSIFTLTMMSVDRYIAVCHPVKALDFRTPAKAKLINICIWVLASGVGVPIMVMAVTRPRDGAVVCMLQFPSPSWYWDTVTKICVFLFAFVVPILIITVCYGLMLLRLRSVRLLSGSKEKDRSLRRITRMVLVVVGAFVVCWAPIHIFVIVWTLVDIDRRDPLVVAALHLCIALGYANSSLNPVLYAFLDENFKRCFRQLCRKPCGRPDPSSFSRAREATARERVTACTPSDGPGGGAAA", "assay": "DOR agonists, SAR follow-up, image-based (AID 2370)"}, "[6]": {"target": "T3, Delta-type opioid receptor", "assay": "delta opioid receptor blockers – image-based, SAR follow-up (AID 2357)"}, "[7]": {"target": "T1, Kappa-type opioid receptor", "assay": "kappa opioid receptor blockers, image-based, SAR follow-up (AID 2348)"}, "Mu-type opioid receptor [8]": {"target": "T2, Mu-type opioid receptor", "assay": "mu opioid receptor activators, image-based, SAR follow-up (AID 2352)"}, "Vero": {"test_system": "Vero", "assay": "cells", "settings": "Chlorocebus sabaeus"}, "[9]": {"target": "Microphthalmia-associated transcription factor (Homo sapiens, UniProt O75030)", "sequence (O75030 whole entry)": "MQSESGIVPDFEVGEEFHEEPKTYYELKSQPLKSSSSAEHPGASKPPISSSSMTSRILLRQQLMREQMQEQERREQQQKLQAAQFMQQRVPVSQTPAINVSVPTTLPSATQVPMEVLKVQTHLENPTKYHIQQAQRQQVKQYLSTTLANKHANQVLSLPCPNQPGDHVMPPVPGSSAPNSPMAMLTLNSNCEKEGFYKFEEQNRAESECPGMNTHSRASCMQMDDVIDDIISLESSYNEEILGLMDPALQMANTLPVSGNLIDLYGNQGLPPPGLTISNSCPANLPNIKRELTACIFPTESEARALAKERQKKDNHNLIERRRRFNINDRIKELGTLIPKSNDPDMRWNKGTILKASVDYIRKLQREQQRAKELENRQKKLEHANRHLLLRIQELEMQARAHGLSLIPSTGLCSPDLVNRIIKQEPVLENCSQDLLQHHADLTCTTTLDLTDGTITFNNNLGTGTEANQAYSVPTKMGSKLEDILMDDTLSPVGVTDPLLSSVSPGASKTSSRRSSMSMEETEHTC", "assay": "reducers of TRPM1 reporter luminescence, concentration series – cell-based, SK-MEL-5, cherry-picked, set 3, MITF inhibitor project, dose response (AID 493073);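 note: SK-MEL-5 melanoma cells with luciferase driven by the MITF target TRPM1 promoter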"}}, "note": "Active and inactive are the calls of the source."}
{"smiles": "COc1ccc(Cn2c(SCc3ccc(Cl)c(Cl)c3)nnc2-c2ccccn2)cc1", "values": [{"measurement": "EC50", "setting": "[1]", "value": "17.4 µM (inactive)"}]}
{"smiles": "COc1ccc(C(=O)CSc2nnc(-c3ccccn3)n2Cc2ccco2)cc1", "values": [{"measurement": "EC50", "setting": "[2]", "value": "> 10 µM (inactive)"}, {"measurement": "IC50", "setting": "Mu-type opioid receptor [3]", "value": "> 32 µM (inactive)"}, {"measurement": "EC50", "setting": "[4]", "value": "> 32 µM (inactive)"}, {"measurement": "EC50", "setting": "[5]", "value": "> 32 µM (inactive)"}, {"measurement": "IC50", "setting": "[6]", "value": "> 32 µM (inactive)"}, {"measurement": "IC50", "setting": "[7]", "value": "> 32 µM (inactive)"}, {"measurement": "EC50", "setting": "Mu-type opioid receptor [8]", "value": "> 32 µM (inactive)"}]}
{"smiles": "CC(C)N=C(NS(=O)(=O)c1ccccc1)C(Cl)(Cl)Cl", "values": [{"measurement": "CC50", "setting": "Vero", "value": "11.5 µM (active)"}, {"measurement": "AC50", "setting": "[9]", "value": "6.76 µM (active)"}]}
